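Where inhibition never reached the appropriate level, the endpoint shown equals the highest concentration tested. Otherwise, values were interpolated linearly from a five-concentration, 48-hour dose response in 96-well plates. GI50 marks 50% less growth. TGI: concentration producing complete growth inhibition.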
What was measured:
Assay in all cases: growth of human tumour cells (NCI), 48 h
786-0 renal = tested on: 786-0 renal
A498 renal = tested on: A498 renal
A549 NSCLC = tested on: A549 NSCLC
ACHN renal = tested on: ACHN renal
BT-549 breast = tested on: BT-549 breast
CCRF-CEM leukemia = tested on: CCRF-CEM leukemia
COLO 205 colon = tested on: COLO 205 colon
DU-145 prostate = tested on: DU-145 prostate
EKVX NSCLC = tested on: EKVX NSCLC
HCC-2998 colon = tested on: HCC-2998 colon
HCT-116 colon = tested on: HCT-116 colon
HCT-15 colon = tested on: HCT-15 colon
HL-60(TB) leukemia = tested on: HL-60(TB) leukemia
HOP-62 NSCLC = tested on: HOP-62 NSCLC
HOP-92 NSCLC = tested on: HOP-92 NSCLC
HS 578T breast = tested on: HS 578T breast
HT29 colon = tested on: HT29 colon
IGROV1 ovarian = tested on: IGROV1 ovarian
K-562 leukemia = tested on: K-562 leukemia
KM12 colon = tested on: KM12 colon
LOX IMVI melanoma = tested on: LOX IMVI melanoma
M14 melanoma = tested on: M14 melanoma
MALME-3M melanoma = tested on: MALME-3M melanoma
MCF7 breast = tested on: MCF7 breast
MDA-MB-231 breast = tested on: MDA-MB-231 breast
MDA-MB-435 = tested on: MDA-MB-435
MOLT-4 leukemia = tested on: MOLT-4 leukemia
NCI-H226 lung = tested on: NCI-H226 lung
NCI-H23 lung = tested on: NCI-H23 lung
NCI-H460 lung = tested on: NCI-H460 lung
NCI-H522 lung = tested on: NCI-H522 lung
NCI/ADR-RES ovarian = tested on: NCI/ADR-RES ovarian
OVCAR-3 ovarian = tested on: OVCAR-3 ovarian
OVCAR-4 ovarian = tested on: OVCAR-4 ovarian
OVCAR-5 ovarian = tested on: OVCAR-5 ovarian
OVCAR-8 ovarian = tested on: OVCAR-8 ovarian
PC-3 prostate = tested on: PC-3 prostate
RPMI-8226 leukemia = tested on: RPMI-8226 leukemia
RXF 393 renal = tested on: RXF 393 renal
SF-268 CNS = tested on: SF-268 CNS
SF-295 CNS = tested on: SF-295 CNS
SF-539 CNS = tested on: SF-539 CNS
SK-MEL-2 melanoma = tested on: SK-MEL-2 melanoma
SK-MEL-28 melanoma = tested on: SK-MEL-28 melanoma
SK-MEL-5 melanoma = tested on: SK-MEL-5 melanoma
SK-OV-3 ovarian = tested on: SK-OV-3 ovarian
SN12C renal = tested on: SN12C renal
SNB-19 CNS = tested on: SNB-19 CNS
SNB-75 CNS = tested on: SNB-75 CNS
SR leukemia = tested on: SR leukemia
SW-620 colon = tested on: SW-620 colon
T-47D breast = tested on: T-47D breast
TK-10 renal = tested on: TK-10 renal
U251 CNS = tested on: U251 CNS
UACC-257 melanoma = tested on: UACC-257 melanoma
UACC-62 melanoma = tested on: UACC-62 melanoma
UO-31 renal = tested on: UO-31 renal

SMILES: CC(=O)OC[C@]1(C)C=C2C(=O)[C@](C)(O)C3(CC3)C(C)=C2[C@H]1OC(=O)N(C)CCN(C)C(=O)OC(C)(C)C
- GI50 (786-0 renal): 938 nM
- TGI (786-0 renal): 2800 nM
- GI50 (A498 renal): 1300 nM
- TGI (A498 renal): 4830 nM
- GI50 (A549 NSCLC): 1360 nM
- TGI (A549 NSCLC): 31100 nM
- GI50 (ACHN renal): 947 nM
- TGI (ACHN renal): 4200 nM
- GI50 (BT-549 breast): 898 nM
- TGI (BT-549 breast): 3130 nM
- GI50 (CCRF-CEM leukemia): 1440 nM
- TGI (CCRF-CEM leukemia): > 33300 nM
- GI50 (COLO 205 colon): 744 nM
- TGI (COLO 205 colon): 2580 nM
- GI50 (DU-145 prostate): 850 nM
- TGI (DU-145 prostate): 20900 nM
- GI50 (EKVX NSCLC): 1700 nM
- TGI (EKVX NSCLC): 10700 nM
- GI50 (HCC-2998 colon): 1080 nM
- TGI (HCC-2998 colon): 3740 nM
- GI50 (HCT-116 colon): 904 nM
- TGI (HCT-116 colon): > 33300 nM
- GI50 (HCT-15 colon): 889 nM
- TGI (HCT-15 colon): > 33300 nM
- GI50 (HL-60(TB) leukemia): 949 nM
- TGI (HL-60(TB) leukemia): > 33300 nM
- GI50 (HOP-62 NSCLC): 1010 nM
- TGI (HOP-62 NSCLC): 3790 nM
- GI50 (HOP-92 NSCLC): 1080 nM
- TGI (HOP-92 NSCLC): 3020 nM
- GI50 (HS 578T breast): 2170 nM
- TGI (HS 578T breast): 14900 nM
- GI50 (HT29 colon): 612 nM
- TGI (HT29 colon): 3260 nM
- GI50 (IGROV1 ovarian): 732 nM
- TGI (IGROV1 ovarian): 3900 nM
- GI50 (K-562 leukemia): 1400 nM
- TGI (K-562 leukemia): > 33300 nM
- GI50 (KM12 colon): 1350 nM
- TGI (KM12 colon): 30700 nM
- GI50 (LOX IMVI melanoma): 1040 nM
- TGI (LOX IMVI melanoma): 7180 nM
- GI50 (M14 melanoma): 788 nM
- TGI (M14 melanoma): 2400 nM
- GI50 (MALME-3M melanoma): 784 nM
- TGI (MALME-3M melanoma): 2270 nM
- GI50 (MCF7 breast): 652 nM
- TGI (MCF7 breast): > 33300 nM
- GI50 (MDA-MB-231 breast): 1110 nM
- TGI (MDA-MB-231 breast): 4720 nM
- GI50 (MDA-MB-435): 809 nM
- TGI (MDA-MB-435): 2350 nM
- GI50 (MOLT-4 leukemia): 1550 nM
- TGI (MOLT-4 leukemia): > 33300 nM
- GI50 (NCI-H226 lung): 9010 nM
- TGI (NCI-H226 lung): 25100 nM
- GI50 (NCI-H23 lung): 651 nM
- TGI (NCI-H23 lung): 1910 nM
- GI50 (NCI-H460 lung): 833 nM
- TGI (NCI-H460 lung): 4190 nM
- GI50 (NCI-H522 lung): 668 nM
- TGI (NCI-H522 lung): 1620 nM
- GI50 (NCI/ADR-RES ovarian): 812 nM
- TGI (NCI/ADR-RES ovarian): 2550 nM
- GI50 (OVCAR-3 ovarian): 1060 nM
- TGI (OVCAR-3 ovarian): 4050 nM
- GI50 (OVCAR-4 ovarian): 797 nM
- TGI (OVCAR-4 ovarian): 2720 nM
- GI50 (OVCAR-5 ovarian): 1090 nM
- TGI (OVCAR-5 ovarian): 7180 nM
- GI50 (OVCAR-8 ovarian): 1050 nM
- TGI (OVCAR-8 ovarian): 32500 nM
- GI50 (PC-3 prostate): 1120 nM
- TGI (PC-3 prostate): 6510 nM
- GI50 (RPMI-8226 leukemia): 2270 nM
- TGI (RPMI-8226 leukemia): 19100 nM
- GI50 (RXF 393 renal): 581 nM
- TGI (RXF 393 renal): 1320 nM
- GI50 (SF-268 CNS): 1170 nM
- TGI (SF-268 CNS): 8570 nM
- GI50 (SF-295 CNS): 926 nM
- TGI (SF-295 CNS): 4880 nM
- GI50 (SF-539 CNS): 816 nM
- TGI (SF-539 CNS): 2240 nM
- GI50 (SK-MEL-2 melanoma): 695 nM
- TGI (SK-MEL-2 melanoma): 1420 nM
- GI50 (SK-MEL-28 melanoma): 1200 nM
- TGI (SK-MEL-28 melanoma): 4690 nM
- GI50 (SK-MEL-5 melanoma): 630 nM
- TGI (SK-MEL-5 melanoma): 1400 nM
- GI50 (SK-OV-3 ovarian): 1180 nM
- TGI (SK-OV-3 ovarian): 5330 nM
- GI50 (SN12C renal): 1220 nM
- TGI (SN12C renal): 7830 nM
- GI50 (SNB-19 CNS): 1190 nM
- TGI (SNB-19 CNS): > 33300 nM
- GI50 (SNB-75 CNS): 1870 nM
- TGI (SNB-75 CNS): 8110 nM
- GI50 (SR leukemia): 961 nM
- TGI (SR leukemia): > 33300 nM
- GI50 (SW-620 colon): 896 nM
- TGI (SW-620 colon): > 33300 nM
- GI50 (T-47D breast): 858 nM
- TGI (T-47D breast): 9640 nM
- GI50 (TK-10 renal): 1370 nM
- TGI (TK-10 renal): 6870 nM
- GI50 (U251 CNS): 1110 nM
- TGI (U251 CNS): > 33300 nM
- GI50 (UACC-257 melanoma): 1820 nM
- TGI (UACC-257 melanoma): 13800 nM
- GI50 (UACC-62 melanoma): 728 nM
- TGI (UACC-62 melanoma): 1610 nM
- GI50 (UO-31 renal): 732 nM
- TGI (UO-31 renal): 2230 nM

Reference: PubChem BioAssay (NCI)
